The values that follow are results of earlier work, collected in patent US5298499A, “S-2-(substituted ethylamino)ethyl phosphorothioates” (Research Triangle Institute, priority 1991, dated 1994).

Structures are written as SMILES. Where two headings read alike, the source gives them in different places.

The conditions of data set [1]: background statement.

For the compound `NC(=O)CCNCCS` [Compound 3, 2-(2.varies.-carbamidoethylamino)ethanethiol], the radioprotective activity entry (literature) was “good radioprotective activity, comparable to that of compound 2”.

Regarding `NCCCNCCSP(=O)(O)O` [WR2721, S-2-[3-aminopropylamino]ethylphosphorothioicacid], under “in vivo”, the radioprotective activity entry is “most effective agent”. In addition, the “uptake in malignant and healthy tissue” value in data set [1] is “comparable uptake”.

As to `NCCCNCCS` [Compound 2], the radioprotective activity result (literature) is on record as “known to be a radioprotective agent”.
